Usually IC50 stands for the point on the concentration scale where inhibition reaches its midpoint.

This passage reports IC50 results from patent US12226425B2, “Inhibitors of ARG1 and/or ARG2” (Arcus Biosciences, Inc., priority 2018, dated 2025).

Structures are written as SMILES.

The target in the assay is T1, recombinant human ARG1 (Homo sapiens, UniProt P05089).
T1 sequence (P05089 1-322): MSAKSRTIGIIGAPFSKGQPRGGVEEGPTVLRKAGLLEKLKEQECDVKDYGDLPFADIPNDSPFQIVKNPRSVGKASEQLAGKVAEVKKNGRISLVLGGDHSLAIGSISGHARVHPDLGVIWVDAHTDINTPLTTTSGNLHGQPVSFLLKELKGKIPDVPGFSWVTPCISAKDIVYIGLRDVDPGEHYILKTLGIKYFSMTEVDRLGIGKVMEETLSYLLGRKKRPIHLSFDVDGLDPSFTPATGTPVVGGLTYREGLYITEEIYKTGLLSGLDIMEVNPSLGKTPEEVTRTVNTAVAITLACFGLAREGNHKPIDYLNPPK
The assay can be described thus: Arginase coupled enzymatic assay using recombinant human ARG1. The class given is biochemical. The following applies: 2 nM ARG1, 0.8 mM L-Arginine, 10 mM sodium phosphate pH 7.4, 0.1 mM MnCl2, 37° C., absorption at 570 nm; read-out: hARG1 potency (IC50). As for the experimental part:
Purified recombinant human ARG1 and ARG2 were prepared in 50 mM Bicine, pH 8.5, 100 μM MnCl2, 20% glycerol and 1mM DTT at a final stock concentration of 14.4 μM and 7.56 μM respectively. 2.5 nM of either ARG1 or ARG2 were incubated with varying concentrations of compounds in 10 mM sodium phosphate, pH 7.4, 0.1 mM MnCl2 and 2.5% DMSO in a total volume of 40 μl in a 384-well microplate (Corning™ #3640) at 37° C. for 1 h. The arginase enzymatic reaction was initiated by addition of 10 μl of 4 mM L-Arginine pre-incubated in 10 mM sodium phosphate, pH 7.4, and 0.1 mM MnCl2 at 37° C. into the enzyme and compound mixture, giving the final reaction conditions: 2 nM of ARG1 or ARG2 and 0.8 mM of L-Arginine in 10 mM sodium phosphate, pH 7.4, 0.1 mM MnCl2 and 2% DMSO with varying concentrations of compounds. Following 2 h incubation at 37° C., the arginase enzymatic reaction was stopped by transfer of 10 μl of reaction into 10 μl of detection mix (204 μM Amino-2-Borono-6-Hexanoic Acid, 0.25 μl Arginase Enzyme mix, 0.25 μl Arginase Developer, 0.25 μl Arginase Converter Enzyme in Arginase Assay Buffer from Arginase Activity Colorimetric Assay Kit, BioVision Inc. #K755-100) in a transparent 384-well microplate (Greiner #781801). The plate was immediately put into a plate reader (Synergy™ Neo2 Multi-Mode Microplate Reader) to monitor absorption at 570 nm at 37° C. Absorption values at 12˜20 min were used to calculate compound potency. The value of the DMSO blank (MIN inhibition=100% activity) was used as a negative control. The positive control was established by adding 8 μl of enzyme and DMSO mix into 10 μl of detection mix followed by addition of 2 μl of L-Arginine (MAX inhibition=0% activity). To calculate the percent activity, Equation 1 was used. Abs570nm is the value at a given compound concentration:
A counter-screen was performed to identify any inhibition of the coupling enzymes by the test compounds. 10 μl of 0.26 mM of urea with varying concentrations of compounds in 10 mM sodium phosphate, pH 7.4, 0.1 mM MnCl2 and 2% DMSO were added into 10 μl of detection mix in place of the arginase enzymatic reaction mix. Absorption was monitored at 570 nm as described above. The values of a no substrate blank (without urea; MAX inhibition=0% activity) and a DMSO blank (MIN inhibition=100% activity) were used as positive and negative controls respectively. […] Inactivity in the counter-screen was used to confirm that results accurately reflected IC50 values for ARG1 and ARG2.
As for `N[C@@]1(C(=O)O)c2cccnc2C[C@@H]1CCCB(O)O`, the IC50 was over 1000 nM.
Take `N[C@@]1(C(=O)O)c2cccc(Br)c2C[C@@H]1CCCB(O)O`: the IC50 was over 1000 nM.
The same measure for `N#Cc1cccc2c1C[C@H](CCCB(O)O)[C@]2(N)C(=O)O`: over 1000 nM.
Under `COc1ccc2c(c1)[C@@](N)(C(=O)O)[C@@H](CCCB(O)O)C2` stands 100 to 1000 nM.
As for `CN[C@@]1(C(=O)O)c2ccccc2C[C@@H]1CCCB(O)O`, the IC50 was 100 to 1000 nM.
For `NCc1ccc2c(c1)[C@@](N)(C(=O)O)[C@@H](CCCB(O)O)C2`, the IC50 is under 100 nM.
Consider `N[C@@]1(C(=O)O)c2cc(Cl)ccc2C[C@@H]1CCCB(O)O`, for which the IC50 lay in the range of 100 to 1000 nM.
The same measure for `N#Cc1ccc2c(c1)[C@@](N)(C(=O)O)[C@@H](CCCB(O)O)C2`: over 1000 nM.
In the case of `NCCc1cccc2c1C[C@H](CCCB(O)O)[C@]2(N)C(=O)O`, the IC50 was in the range of 100 to 1000 nM.
Under `CN[C@@]1(C(=O)O)c2cccc(CN)c2C[C@@H]1CCCB(O)O` stands under 100 nM; under `Cc1ccc2c(c1)C[C@H](CCCB(O)O)[C@]2(N)C(=O)O`, over 1000 nM; under `NCc1ccc2c(c1)C[C@H](CCCB(O)O)[C@]2(N)C(=O)O`, under 100 nM.
For `CNCc1cccc2c1C[C@H](CCCB(O)O)[C@]2(NC)C(=O)O`, the IC50 lay in the range of 100 to 1000 nM.
Under `N[C@@]1(C(=O)O)c2ccccc2C[C@@H]1CCCB(O)O` stands 100 to 1000 nM.
Under `CN[C@@]1(C(=O)O)c2ccc(CN)cc2C[C@@H]1CCCB(O)O` stands under 100 nM.
`N[C@@]1(C(=O)O)c2ccc(Cl)cc2C[C@@H]1CCCB(O)O`: the concentration for half-maximal inhibition (IC50) was in the range of 100 to 1000 nM.
The same measure for `CN(C)[C@@]1(C(=O)O)c2cc(CN)ccc2C[C@@H]1CCCB(O)O`: 100 to 1000 nM.
The same measure for `CN[C@@]1(C(=O)O)c2cccc(OC)c2C[C@@H]1CCCB(O)O`: over 1000 nM.
`NCCc1ccc2c(c1)[C@@](N)(C(=O)O)[C@@H](CCCB(O)O)C2`: the IC50 is under 100 nM.
The same measure for `NCCc1ccc2c(c1)C[C@H](CCCB(O)O)[C@]2(N)C(=O)O`: 100 to 1000 nM; for `CN[C@@]1(C(=O)O)c2cc(OC)c(CN)cc2C[C@@H]1CCCB(O)O`: under 100 nM; for `CN[C@@]1(C(=O)O)c2cc(Cl)c(CN)cc2C[C@@H]1CCCB(O)O`: under 100 nM.
With `CC(N)c1ccc2c(c1)[C@@](N)(C(=O)O)[C@@H](CCCB(O)O)C2` (stereo partly drawn), the IC50 was under 100 nM.
For the compound `NCCc1cc2c(cc1Cl)C[C@H](CCCB(O)O)[C@]2(N)C(=O)O`, the IC50 was under 100 nM.
The same measure for `CCN[C@@]1(C(=O)O)c2cc(OC)c(CN)cc2C[C@@H]1CCCB(O)O`: 100 to 1000 nM; for `CN[C@@]1(C(=O)O)c2c(F)cc(CN)cc2C[C@@H]1CCCB(O)O`: 100 to 1000 nM.
The same measure for `NC1CN(c2ccc3c(c2)C[C@H](CCCB(O)O)[C@]3(N)C(=O)O)C1`: over 1000 nM; for `CN[C@@]1(C(=O)O)c2cc(CN)c(Cl)cc2C[C@@H]1CCCB(O)O`: under 100 nM; for `CN[C@@]1(C(=O)O)c2cc(CN)c(F)cc2C[C@@H]1CCCB(O)O`: under 100 nM.
The same measure for `CN[C@@]1(C(=O)O)c2cc([C@@H](C)N)c(F)cc2C[C@@H]1CCCB(O)O`: under 100 nM.
As for `CN[C@@]1(C(=O)O)c2cc([C@H](C)N)c(F)cc2C[C@@H]1CCCB(O)O`, the IC50 is under 100 nM.
The same measure for `CNCc1cc2c(cc1Cl)C[C@H](CCCB(O)O)[C@]2(NC)C(=O)O`: under 100 nM; for `CN[C@@]1(C(=O)O)c2cc([C@H](C)N)c(Cl)cc2C[C@@H]1CCCB(O)O`: under 100 nM.
`CN[C@@]1(C(=O)O)c2cc(C(C)(C)N)c(F)cc2C[C@@H]1CCCB(O)O`: the IC50 was under 100 nM.
With `CN[C@@]1(C(=O)O)c2cc([C@@H](C)N)c(Cl)cc2C[C@@H]1CCCB(O)O`, the IC50 is under 100 nM.
The same measure for `CN[C@@]1(C(=O)OC)c2cc(CN)c(Cl)cc2C[C@@H]1CCCB(O)O`: 100 to 1000 nM.
In the case of `CN[C@@]1(C(=O)O)c2cc([C@@H](C)N)ccc2C[C@@H]1CCCB(O)O`, the IC50 is under 100 nM.
The same measure for `CN[C@@]1(C(=O)O)c2cc(N)c(Cl)cc2C[C@@H]1CCCB(O)O`: 100 to 1000 nM; for `CN[C@@]1(C(=O)O)c2cc(C(C)(C)N)c(Cl)cc2C[C@@H]1CCCB(O)O`: under 100 nM; for `CN[C@@]1(C(=O)O)c2cc(CO)c(Cl)cc2C[C@@H]1CCCB(O)O`: 100 to 1000 nM.
With `CN[C@@]1(C(=O)O)c2cc([C@@H](N)C(F)(F)F)ccc2C[C@@H]1CCCB(O)O`, the IC50 lay within 100 to 1000 nM.
With `CN[C@@]1(C(=O)O)c2cc(-c3ccccn3)c(F)cc2C[C@@H]1CCCB(O)O`, the IC50 is 100 to 1000 nM.
As to `NC1(c2cc3c(cc2F)C[C@H](CCCB(O)O)[C@]3(N)C(=O)O)CCC1`, the IC50 is under 100 nM.
Turning to `CN[C@@]1(C(=O)O)c2cc(C3(CN)CCC3)c(F)cc2C[C@@H]1CCCB(O)O`, the IC50 is under 100 nM.
The same measure for `CN[C@@]1(C(=O)O)c2cc(-c3ccccc3CO)c(F)cc2C[C@@H]1CCCB(O)O`: 100 to 1000 nM; for `CN[C@@]1(C(=O)O)c2cc(C3(NC(=O)[C@H](C)N)CCC3)c(F)cc2C[C@@H]1CCCB(O)O`: 100 to 1000 nM; for `CN[C@@]1(C(=O)O)c2cc(C3(N)CC3)c(F)cc2C[C@@H]1CCCB(O)O`: under 100 nM.
As to `CN[C@@]1(C(=O)O)c2cc(C3(N)CCCC3)c(F)cc2C[C@@H]1CCCB(O)O`, the IC50 was under 100 nM.
As for `CC[C@](C)(N)c1cc2c(cc1F)C[C@H](CCCB(O)O)[C@]2(NC)C(=O)O`, the IC50 was under 100 nM.
Consider `CN[C@@]1(C(=O)O)c2cc(C3(N)CC(C)(C)C3)c(F)cc2C[C@@H]1CCCB(O)O`, for which the IC50 was under 100 nM.
Under `CN[C@@]1(C(=O)O)c2cc([C@H](C)N)c(OCC(F)(F)F)cc2C[C@@H]1CCCB(O)O` stands under 100 nM; under `CC[C@@](C)(N)c1cc2c(cc1F)C[C@H](CCCB(O)O)[C@]2(NC)C(=O)O`, under 100 nM.
With `CN[C@@]1(C(=O)O)c2cc([C@H](C)N)c(C)cc2C[C@@H]1CCCB(O)O`, the IC50 is under 100 nM.
Regarding `CCC(N)(CC)c1cc2c(cc1F)C[C@H](CCCB(O)O)[C@]2(NC)C(=O)O`, the IC50 was under 100 nM.
The same measure for `CN[C@@]1(C(=O)O)c2cc([C@H](C)N)c(OC)cc2C[C@@H]1CCCB(O)O`: under 100 nM; for `CN[C@@]1(C(=O)O)c2cc(C3CCNCC3)c(F)cc2C[C@@H]1CCCB(O)O`: under 100 nM.
For `CN[C@@]1(C(=O)O)c2cc(CN3CCCCC3(C)C)c(F)cc2C[C@@H]1CCCB(O)O`, the IC50 was under 100 nM.
For `CN[C@@]1(C(=O)O)c2cc(CN3CCC[C@H]3C(=O)O)c(F)cc2C[C@@H]1CCCB(O)O`, the IC50 was in the range of 100 to 1000 nM.
The same measure for `CC[C@H](NC)c1cc2c(cc1F)C[C@H](CCCB(O)O)[C@]2(NC)C(=O)O`: under 100 nM; for `CC[C@@H](NC)c1cc2c(cc1F)C[C@H](CCCB(O)O)[C@]2(NC)C(=O)O`: under 100 nM.
